Consider 5 compounds from patent US6525040B1, “Cyclic organoselenium compounds, their preparation and their uses” (Oxis Isle of Man, Limited, priority 1996, dated 2003).

Bounds are passed on as bounds.

For orientation: inhibition means how much of the control response was suppressed.

Data set [1] is described as follows: Glutathione peroxidase activity (NADPH-coupled, GSH/glutathione disulphide reductase). In kind it is biochemical. The settings on record: compound 20 μM, pH = 7.3, 37° C., [GSH] = 2 mM; for Glutathione peroxidase activity, H2O2: substrate H2O2; for Glutathione peroxidase activity, t-BuOOH: substrate t-BuOOH. Here is the method:
The glutathione peroxidase activity is determined by using a 50 mM HEPES buffer, pH=7.3 (at 37° C.), containing 0.2 mM DTPA, 0.144 mM NADPH, 2.2 mM reduced glutathione (GSH) and 1.1 U/ml glutathione disulphide reductase. This buffer further contains 110 U/ml catalase when hydrogen peroxide is not used as substrate.
To 1.5 ml of the buffer described above, are added 100 μl of an ethanolic stock solution of the compound tested or 100 μl of absolute ethanol (blank). Each compound is tested at a final concentration of 20 μM. The reaction medium is equilibrated for 2 minutes at 37° C. Then 50 μl of 6.6 mM tert-butyl hydroperoxide (t-BuOOH) in ultrapure water, or 3.3 mM hydrogen peroxide (H2O2) in ultrapure water are added. The glutathione peroxidase activity is determined at 37° C. by measuring the decrease of absorbance at 340 nm for 5 minutes. Said activity or initial enzymatic rate is proportional to the slope of the variation of absorbance with time.
The catalytic activity of oxygen reduction of the compounds tested corresponds to the rate of consum.p.ion of NADPH in the absence of hydroperoxide.
They are expressed in nmoles of hydroperoxide reduced per minute.

In data set [2] the test system is TNF-α-induced interleukin 8 release by endothelial cells (HUVEC). The experiment in a line: Inhibition of the TNF-α-induced release of interleukin 8 by endothelial cells (ELISA). The settings on record: compound 10 μM, TNF-α 1 ng/ml, 3 h 30 min incubation, human endothelial cells, read-out: Inhibition of TNF-α-induced IL-8 production in the culture medium. In kind it is cell-based. The procedure:
Human endothelial cells are grown at 37° C. in multi-well plates under a water-saturated atmosphere constituted of a gaseous mixture of 95% air and 5% CO2. Their culture medium is constituted by a medium M 199 pH=7.4 containing 20% foetal calf serum, 2 mM L-glutamine, 100 U/ml penicillin, 100 μg/ml streptomycin and 1% by volume of a medium supplement containing heparin and a growth factor for these cells.
When the cells are close to confluence, they are incubated for one hour in the presence or in the absence of one of the following compounds: BXT-51097 or BXT-51103. Each one of these compounds is incorporated at 10 μM in the culture medium containing 2% foetal calf serum, everything else being equal. After removal of the culture medium, the cells are incubated in the presence or in the absence (control) of TNF-α, at 1 ng/ml, in the same culture medium as before. In the case of cells pre-treated with a compound of the invention, the medium further contains the same compound at 10 μM. After three hours and thirty minutes of incubation, the interleukin 8 (IL-8) released into the culture medium is determined by ELISA.
On the technique in general: An ELISA detects its analyte on a solid surface through an enzyme-linked reagent.

The subject of data set [3] is TNF-α-induced E-selectin expression by endothelial cells (HUVEC). Put plainly: Inhibition of TNF-α-induced E-selectin expression by endothelial cells (cell ELISA). The class given is cell-based. The settings on record: compound 10 μM; TNF-α 1 ng/ml; 3 h 30 min incubation; human endothelial cells. Here is the method:
(§1) Human endothelial cells are grown under the same conditions as those described in Example 6.
(§2) When the cells are close to confluence, they are incubated for one hour in the presence or in the absence of one of the following compounds: BXT-51097 or BXT-51103. Each one of these compounds is incorporated at 10 μM in the culture medium containing 2% foetal calf serum, everything else being equal. After the removal of the culture medium, the cells are incubated in the presence or in the absence (control) of TNF-α, at 1 ng/ml, in the same culture medium as before. In the case of cells pre-treated with a compound, the medium further contains the same compound at 10 μM. After three hours and thirty minutes of incubation, the cells are washed with PBS buffer and they are fixed with 2% formaldehyde in the same buffer. The P- and E-selectin expressions on the cells are then measured by an ELISA determination by successively incubating the cells in the presence of a mouse monoclonal antibody, anti-P-selectin and anti-E-selectin respectively, and a rabbit anti-mouse anti-antibody labelled with alkaline phosphatase. The quantification is carried out upon the addition of para-nitrophenyl phosphate whose hydrolysis is followed at 405 nm.

In data set [4] the test system is TNF-α-induced P-selectin expression by endothelial cells (HUVEC). Put plainly: Inhibition of TNF-α-induced P-selectin expression by endothelial cells (cell ELISA). The settings on record: compound 10 μM; TNF-α 1 ng/ml; 3 h 30 min incubation; human endothelial cells. The class given is cell-based. Here is the method: as §1, §2
The conditions of data set [5]: even in the presence of an excess of glutathione GSH; cited from earlier work.

`CC1(C)CN[Se](=O)c2ccsc21` (stereo not drawn) [BXT-51105, 4,4-Dimethyl-thieno-[23-e]-isoselenazine-1-oxide]: in data set [1], the “Glutathione peroxidase activity, H2O2” value is recorded as 35.7 nmoles of hydroperoxide reduced/min and the “Glutathione peroxidase activity, t-BuOOH” value is given as 13.9 nmoles of hydroperoxide reduced/min.
For `CC1(C)CN[Se]c2ccsc21` [BXT-51103, 4,4-Dimethyl-thieno-[2,3-e]-isoselenazine], the inhibition at 10 µM in data set [2] is ≥ 85%. In data set [1], the “Glutathione peroxidase activity, H2O2” value is 34.9 nmoles of hydroperoxide reduced/min and the “Glutathione peroxidase activity, t-BuOOH” value was 15.5 nmoles of hydroperoxide reduced/min. In data set [3], the “Inhibition of TNF-α-induced E-selectin expression” value is on record as “totally inhibited”. The “Inhibition of TNF-α-induced P-selectin expression” value in data set [4] is given as “totally inhibited”.
Turning to `CC1(C)CN[Se](=O)c2sccc21` (stereo not drawn) [BXT-51100, 4,4-Dimethyl-thieno-[3,2-e]-isoselenazine-1-oxide], in data set [1], the “Glutathione peroxidase activity, H2O2” value is 37.1 nmoles of hydroperoxide reduced/min and the “Glutathione peroxidase activity, t-BuOOH” value is on record as 10.1 nmoles of hydroperoxide reduced/min.
Take `CC1(C)CN[Se]c2sccc21` [BXT-51097, 4,4-Dimethyl-thieno-[3,2-e]-isoselenazine]: the inhibition at 10 µM in data set [2] was ≥ 85%. For the same compound, in data set [1], the “Glutathione peroxidase activity, H2O2” value is 39.8 nmoles of hydroperoxide reduced/min and the “Glutathione peroxidase activity, t-BuOOH” value was 11.4 nmoles of hydroperoxide reduced/min. The “Inhibition of TNF-α-induced E-selectin expression” value in data set [3] is “totally inhibited”. For the same compound, in data set [4], the “Inhibition of TNF-α-induced P-selectin expression” value was “totally inhibited”.
As to `O=c1c2ccccc2[se]n1-c1ccccc1` [ebselen, 2-phenyl-1,2-benzisoselenazolin-3-one], the Solubility in water result in data set [5] was “very little soluble in water”.
